Laboratory results reported in EP1180094B1, “FUSED POLYCYCLIC AMINO ACIDS AS PHARMACEUTICAL AGENTS” (WARNER-LAMBERT COMPANY, priority 1999, dated 2000).

Key:
[1] = test system: carrageenan-induced hyperalgesia model; test: Carrageenin-induced hyperalgesia, rat paw pressure test (Randall-Selitto); format: in vivo; conditions: dosed orally at 30 mg/kg
Description: Nociceptive pressure thresholds were measured in the rat paw pressure test using an analgesimeter (Randall-Selitto method: Randall L.O. and Selitto J.J., "A method for measurement of analgesic activity on inflamed tissue," Arch. Int. Pharmacodyn., 1957;4:409-419). Male Sprague-Dawley rats (70-90 g) were trained on this apparatus before the test day. Pressure was gradually applied to the hind paw of each rat and nociceptive thresholds were determined as the pressure (g) required to elicit paw withdrawal. A cutoff point of 250 g was used to prevent any tissue damage to the paw. On the test day, two to three baseline measurements were taken before animals were administered 100 µL of 2% carrageenin by intraplantar injection into the right hind paw. […] Animals were dosed with either gabapentin ([…].), morphine (3 mg/kg, s.c.) or saline at 3.5 hours after carrageenin and nociceptive thresholds were examined at 4, 4.5, and 5 hours postcarrageenin.
(R)-2-Aza-spiro[4.5]decane-4-carboxylic acid hydrochloride was tested in the above carrageenan-induced hyperalgesia model. The compound was dosed orally at 30 mg/kg, and 1 hour postdose gave a percent of maximum possible effect (MPE) of 53%. At 2 hours postdose, it gave only 4.6% of MPE.

[2] = test system: Carrageenan Induced Thermal Hyperalgesia Model (rat); test: Carrageenan induced thermal hyperalgesia model; format: in vivo

Row | Structure (SMILES) | percent of maximum possible effect (MPE) ([1]; 1 hour postdose) | percent of maximum possible effect (MPE) ([1]; 2 hours postdose) | Carrageenan Induced Thermal Hyperalgesia Model (rat). %MPE* at time postdose @30 mg/Kg p.o. ([2]; 1h postdose) | Carrageenan Induced Thermal Hyperalgesia Model (rat). %MPE* at time postdose @30 mg/Kg p.o. ([2]; 2h postdose)
1 | Cl.O=C(O)[C@H]1CNCC12CCCCC2 [(R)-2-Aza-spiro[4.5]decane-4-carboxylic acid hydrochloride] | 53% | 4.6% | – | –
2 | NCC1(CC(=O)O)Cc2ccccc2C1 [(2-aminomethyl-indan-2-yl)-acetic acid] | – | – | 28.5 (1h) %MPE | 10 (2h) %MPE
